Data taken from the supplement of paper PMC10307832.

How the values were obtained:
Assay in all cases: relative viability (nuclei count vs DMSO), 5 days (fraction); higher = more cells survive
[1] = compound: CC1=C(C(=NN1)C)CC2=C(C3=C(S2)N(C(=O)N(C3=O)C)CC(C)C)C(=O)N4C[C@@H](CO4)O
Summary of the method: (§1)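 Lung cancer cell lines in 1536-well plates were exposed by pinning to five library-drug doses (not always all listed) √10 apart, following an overnight hold at 37 °C. MetaXpress counted Hoechst-stained nuclei from 4× images taken after 5 days without medium change. Viability is the median ratio of treated-well to vehicle-well nuclei across plates. Plates required control CV below 25% and at least one doubling.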

[2] = compound: Cc1ccccc1C(C(=O)NC1CCCCC1)N(C(=O)Cn1ccnc1C)c1cccc(F)c1 [IDH-C35]
Summary of the method: as §1

[3] = compound: CC1=C(C(=NN1)C)CC2=C(C3=C(S2)N(C(=O)N(C3=O)C)CC(C)C)C(=O)N4C[C@@H](CO4)O + Cc1nc(NC(=O)N2CCC[C@H]2C(N)=O)sc1-c1ccnc(C(C)(C)C(F)(F)F)c1 [Alpelisib] (partner 2 µM)
Summary of the method: (§2)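 One day after seeding in 1536-well plates, lung cancer cell lines were dosed by pin tool. Dosing was either single-drug or a fixed anchor-drug dose plus five library-drug doses (not always all listed) in √10 steps. After 5 days, nuclei were stained in one fix-and-stain step and counted on 4× images, and relative viability is the nuclei count of treated wells over that of vehicle wells, given as the median of duplicate plates.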

[4] = compound: Cc1ccccc1C(C(=O)NC1CCCCC1)N(C(=O)Cn1ccnc1C)c1cccc(F)c1 [IDH-C35] + Nc1nc2[nH]cc(CCc3ccc(C(=O)N[C@@H](CCC(=O)O)C(=O)O)cc3)c2c(=O)[nH]1 [Pemetrexed] (partner 0.2 µM)
Summary of the method: as §2

Cell Line	relative viability ([1]; 0.0025 µM)	relative viability ([1]; 0.007906 µM)	relative viability ([1]; 0.025 µM)	relative viability ([1]; 0.07906 µM)	relative viability ([1]; 0.25 µM)	relative viability ([2]; 0.08 µM)	relative viability ([2]; 0.253 µM)	relative viability ([2]; 0.8 µM)	relative viability ([2]; 8 µM)	relative viability ([3]; first compound 0.0025 µM)	relative viability ([3]; first compound 0.007906 µM)	relative viability ([3]; first compound 0.025 µM)	relative viability ([3]; first compound 0.07906 µM)	relative viability ([3]; first compound 0.25 µM)	relative viability ([4]; first compound 0.08 µM)	relative viability ([4]; first compound 0.253 µM)	relative viability ([4]; first compound 0.8 µM)	relative viability ([4]; first compound 2.53 µM)	relative viability ([4]; first compound 8 µM)	relative viability ([2]; 2.53 µM)
HCC-15	1.04	1.03	1.01	1.04	1.12	1	0.97	0.956	0.925	0.953	0.914	0.901	0.854	0.942	0.206	0.235	0.223	0.226	0.227	
HCC-44	1.01	1.01	0.992	0.931	1.05	0.949	0.947	0.971	0.942	0.817	0.851	0.798	0.795	0.777	0.6	0.639	0.658	0.633	0.667	0.998
HCC-78	1.08	1.14	0.845	0.91	0.832	0.925	0.979	0.896	0.928	0.409	0.343	0.315	0.319	0.299	0.918	0.918	0.897	0.912	0.943	0.998
HCC-366	0.986	1.03	1.03	0.988	1.04	1.04	1.04	0.97	0.934	0.489	0.475	0.396	0.54	0.49	0.143	0.156	0.171	0.188	0.176	0.935
HCC-827	0.904	1.08	1.06	1.04	1.06	1.06	0.934	1.04	1.02	1.01	1.01	0.962	0.93	0.939	0.279	0.266	0.269	0.248	0.238	0.991
HOP-62	0.962	0.976	0.953	0.977	1.17	1.03	1.03	0.957	0.964	0.959	1.15	1.01	0.862	0.696	0.302	0.309	0.255	0.338	0.346	0.81
LC-2-ad	0.982	0.93	0.956	1.04	1.04	0.993	1	0.966	0.898	0.985	0.85	0.842	0.897	0.921	0.265	0.285	0.275	0.266	0.278	0.701
LCLC-97TM1	1.05	1.13	0.98	0.957	1.02	0.807	1.03	0.936	0.91	0.276	0.206	0.257	0.188	0.228	0.216	0.173	0.201		0.145	
